In US20140088052A1, “CHALCONE DERIVATIVES AS NRF2 ACTIVATORS” (THE JOHNS HOPKINS UNIVERSITY, priority 2011, published 2014):
Like-named read-outs stand apart in the source and are kept apart here.

System: Nrf2
Experiment: Expression of Nrf2-regulated genes GCLM and NQO1 by qRT-PCR in Beas-2B cells (screen)
Assay type: cell-based, human
Conditions: 16 h, DMSO = 1.0 (Table 2); for fold induction at 10 µM: Homo sapiens
Method: To investigate the potency of the presently disclosed chalcone derivatives to activate Nrf2, the expression of antioxidant genes, GCLM and NADPH-NQO1, two well characterized transcriptional targets of Nrf2, were measured as surrogate markers. By “marker” is meant any protein or polynucleotide having an alteration in expression level or activity that is associated with a disease, disorder, or condition. It has been previously shown that oxidants or small molecule activators of Nrf2 increase GCLM and NQO1 in cells or tissues of wild-type, but not in Nrf2-deficient mice. Osburn, W. O., et al., Genetic or pharmacologic amplification of Nrf2 signaling inhibits acute inflammatory liver injury in mice. Toxicol. Sci. 2008, 104(1), 218-227. […]
RNA was isolated and gene expression was measured after 16 h.
Total RNA was extracted from cells/tissue using Qiagen RNeasy kit (Qiagen Corporation, Valencia, Calif.) and reverse transcription was performed by using random hexamers and MultiScribe reverse transcriptase according to the manufacturer's recommendations (Applied Biosystems, Foster City, Calif., USA). Quantitative real-time RT-PCR analyses of Nrf2, NQO1, HO1, and GCLM were performed by using Assay-on-Demand primers and probe sets from Applied Biosystems. Assays were performed using the ABI 7000 Taqman system (Applied Biosystems, Foster City, Calif.). β-actin was used for normalization.

[1] = BEAS-2B, read-out: Relative Fold Change GCLM
[2] = BEAS-2B, read-out: Relative Fold Change NQO1
[3] = read-out: Relative Fold Change GCLM
[4] = read-out: Relative Fold Change NQO1

Row | Structure (SMILES) | fold induction at 10 µM [1] | fold induction at 10 µM [2] | further results
1 | COc1cc(C(=O)/C=C/c2cccc(C(F)(F)F)c2)cc(OC)c1OC [Compound 3j, (E)-1-(3,4,5-trimethoxyphenyl)-3-(3-(trifluoromethyl)phenyl)prop-2-en-1-one] | 1.7 | 0.8 | 
2 | COc1ccc(C(=O)/C=C/c2ccccc2)cc1OC [Compound 1h, (E)-3-phenyl-1-(3,4-dimethoxyphenyl)prop-2-en-1-one] |  |  | fold induction at 10 µM [3]: 2.3; fold induction at 10 µM [4]: 2.5
3 | COc1ccc(C(=O)/C=C/c2ccccc2)c(OC)c1OC [Compound 1k, (E)-3-phenyl-1-(2,3,4.trimethoxyphenyl)prop-2-en-1-one] |  |  | Relative Fold Change GCLM (10 μM): 2.4; Relative Fold Change NQO1 (10 μM): 2.4
4 | COc1ccc(C(=O)/C=C/c2cccc(C(F)(F)F)c2)cc1 [Compound 3d, (E)-1-(4-methoxyphenyl)-3-(3-(trifluoromethyl)phenyl)prop-2-en-1-one] | 2.7 | 2.8 | 
5 | COc1cc(OC)c(C(=O)/C=C/c2cccc(C(F)(F)F)c2)c(OC)c1 [Compound 3l, (E)-1-(2,4,6-trimethoxyphenyl)-3-(3-(trifluoromethyl)phenyl)prop-2-en-1-one] | 1.4 | 0.7 | 
6 | COc1ccc(OC)c(C(=O)/C=C/c2ccccc2[N+](=O)[O-])c1 [Compound 5g] | 1.7 | 0.7 | 
7 | COc1ccc(C(=O)/C=C/c2ccccc2)c(OC)c1 [Compound 1e, (E)-3-phenyl-1-(2,4-dimethoxyphenyl)prop-2-en-1-one] |  |  | fold induction at 10 µM [3]: 2.7; fold induction at 10 µM [4]: 2.8
8 | COc1cc(C(=O)/C=C/c2ccccc2C(F)(F)F)cc(OC)c1OC [Compound 2j, (E)-1-(3,4,5,S.trimethoxyphenyl)-3-(2-(trifluoromethyl)phenyl)prop-2-en-1-one] | 3 | 3.1 | 
9 | COc1cc(C(=O)/C=C/c2ccccc2)cc(OC)c1OC [Compound 1j, (E)-3-phenyl-1-(3,4,5-trimethoxyphenyl)prop-2-en-1-one] | 0.7 | 0.7 | 
10 | COc1ccc(C(=O)/C=C/c2ccccc2C(F)(F)F)cc1OC [Compound 2h, (E)-1-(3,4-dimethoxyphenyl)-3-(2-(trifluoromethyl)phenyl)prop-2-en-1-one] | 4.3 | 2.7 | 
11 | COc1cccc(OC)c1C(=O)/C=C/c1ccc(C(F)(F)F)cc1 [Compound 4f, (E)-1-(2,6-dimethoxyphenyl)-3-(4-(trifluoromethyl)phenyl)prop-2-en-1-one] | 1.4 | 0.6 | 
12 | COc1cc(OC)cc(C(=O)/C=C/c2ccccc2)c1 [Compound 1i, (E)-3-phenyl-1-(3,5-dimethoxyphenyl)prop-2-en-1-one] | 3 | 2.4 | 
13 | COc1ccc(C(=O)/C=C/c2ccccc2[N+](=O)[O-])c(OC)c1OC [Compound 5k, (E)-1-(2,3,4-trimethoxyphenyl)-3-(2-nitrophenyl)prop-2-en-1-one] | 2.9 | 3.3 | 
14 | COc1ccc(OC)c(C(=O)/C=C/c2ccccc2)c1 [Compound 1g, (E)-3-phenyl-1-(2,5-dimethoxyphenyl)prop-2-en-1-one] | 3 | 2.6 | 
15 | COc1ccc(C(=O)/C=C/c2cccc(C(F)(F)F)c2)cc1OC [Compound 3h, (E)-1-(3,4-dimethoxyphenyl)-3-(3-(trifluoromethyl)phenyl)prop-2-en-1-one] | 4.1 | 2.9 | 
16 | COc1ccc(C(=O)/C=C/c2cccc(C(F)(F)F)c2)c(OC)c1 [Compound 3e, (E)-1-(2,4-dimethoxyphenyl)-3-(3-(trifluoromethyl)phenyl)prop-2-en-1-one] | 4.6 | 4 | 

Row | Structure (SMILES) | fold induction at 10 µM [1] | fold induction at 10 µM [2] | further results
17 | COc1ccccc1C(=O)/C=C/c1ccccc1 [Compound 1b, (E)-1-(2-methoxyphenyl)-3-phenylprop-2-en-1-one] | 3.6 | 3.2 | 
18 | COc1ccccc1C(=O)/C=C/c1cccc(C(F)(F)F)c1 [Compound 3b, (E)-1-(2-methoxyphenyl)-3-(3-(trifluoromethyl)phenyl)prop-2-en-1-one] | 3.9 | 2.9 | 
19 | COc1cccc(OC)c1C(=O)/C=C/c1ccccc1 [Compound 1f, (E)-3-phenyl-1-(2,6-dimethoxyphenyl)prop-2-en-1-one] | 2.5 | 1.9 | 
20 | COc1cc(OC)c(C(=O)/C=C/c2ccccc2)c(OC)c1 [Compound 1l, (E)-3-phenyl-1-(2,4,6-trimethoxyphenyl)prop-2-en-1-one] | 3.1 | 1.8 | 
21 | COc1ccc(C(=O)/C=C/c2ccc(C(F)(F)F)cc2)cc1OC [Compound 4h] | 3.5 | 2.7 | 
22 | COc1ccc(C(=O)/C=C/c2cccc(C(F)(F)F)c2)c(OC)c1OC [Compound 3k, (E)-1-(2,3,4-trimethoxyphenyl)-3-(3-(trifluoromethyl)phenyl)prop-2-en-1-one] | 3.6 | 3.2 | 
23 | COc1ccc(C(=O)/C=C/c2ccccc2)cc1 [Compound 1d, (E)-1-(4-methoxyphenyl)-3-phenylprop-2-en-1-one] | 1.9 | 2.8 | 
24 | COc1ccc(OC)c(C(=O)/C=C/c2ccccc2C(F)(F)F)c1 [Compound 2g, (E)-1-(2,5-dimethoxyphenyl)-3-(2-(trifluoromethyl)phenyl)prop-2-en-1-one] | 4.4 | 2.7 | 
25 | COc1ccc(OC)c(C(=O)/C=C/c2cccc(C(F)(F)F)c2)c1 [Compound 3g, (E)-1-(2,5-dimethoxyphenyl)-3-(3-(trifluoromethyl)phenyl)prop-2-en-1-one] | 1.8 | 0.8 | 
26 | COc1cccc(C(=O)/C=C/c2ccccc2)c1 [Compound 1c, (E)-1-(3-methoxyphenyl)-3-phenylprop-2-en-1-one] | 1.5 | 2.4 | 
27 | COc1cc(C(=O)/C=C/c2ccc(C(F)(F)F)cc2)cc(OC)c1OC [Compound 4i] | 4.1 | 3.7 | 
28 | O=C(/C=C/c1ccc(C(F)(F)F)cc1)c1ccccc1 [Compound 4a, (E)-1-phenyl-3-(4-(trifluoromethyl)phenyl)prop-2-en-1-one] | 3.31 | 2.9 | 
29 | COc1cc(OC)c(C(=O)/C=C/c2ccc(C(F)(F)F)cc2)c(OC)c1 [Compound 4k] | 2.4 | 2.4 | 
30 | COc1cccc(C(=O)/C=C/c2ccc(C(F)(F)F)cc2)c1 [Compound 4c, (E)-1-(3-methoxyphenyl)-4-(4-(trifluoromethyl)phenyl)prop-2-en-1-one] | 2.9 | 3.1 | 
31 | COc1cccc(OC)c1C(=O)/C=C/c1cccc(C(F)(F)F)c1 [Compound 3f, (E)-1-(2,6-dimethoxyphenyl)-3-(3-(trifluoromethyl)phenyl)prop-2-en-1-one] | 1.8 | 0.6 | 
32 | O=C(/C=C/c1cccc(C(F)(F)F)c1)c1ccccc1 [Compound 3a, (E)-1-phenyl-3-(3-(trifluoromethyl)phenyl)prop-2-en-1-one] | 3.1 | 2.8 | 
